Experiment: mn = molality of the nth substance listed, in mol/kg
Details: 100 kPa, Liquid; for viscosity: Falling or rolling sphere viscometry; for mass density: Vibrating tube method

O=S(=O)(O)O [sulfuric acid] + O
Details	mass density [kg/m3]	viscosity [mPa·s]
283.15 K, m1 = 0.05	1003.29	1.322
283.15 K, m1 = 0.1	1006.64	1.326
283.15 K, m1 = 0.1498	1009.9	1.339
283.15 K, m1 = 0.1997	1013.13	1.352
283.15 K, m1 = 0.2501	1016.29	1.363
283.15 K, m1 = 0.2999	1019.54	1.375
283.15 K, m1 = 0.3312	–	1.386
283.15 K, m1 = 0.3996	1025.76	1.399
283.15 K, m1 = 0.5001	1031.92	1.415
283.15 K, m1 = 0.6672	–	1.48
283.15 K, m1 = 0.9962	–	1.502
283.15 K, m1 = 1.331	–	1.653
283.15 K, m1 = 1.669	–	1.733
283.15 K, m1 = 2	–	1.817
283.15 K, m1 = 2.327	–	1.914
283.15 K, m1 = 2.667	–	2.017
283.15 K, m1 = 2.994	–	2.154
283.15 K, m1 = 3.33	–	2.28
283.15 K, m1 = 3.667	–	2.331
288.15 K, m1 = 0.05	1002.61	1.151
288.15 K, m1 = 0.1	1005.89	1.156
288.15 K, m1 = 0.1498	1009.09	1.167
288.15 K, m1 = 0.1997	1012.25	1.179
288.15 K, m1 = 0.2501	1015.35	1.19
288.15 K, m1 = 0.2999	1018.53	1.2
288.15 K, m1 = 0.3312	–	1.212
288.15 K, m1 = 0.3996	1024.63	1.221
288.15 K, m1 = 0.5001	1030.68	1.236
288.15 K, m1 = 0.6672	–	1.294
288.15 K, m1 = 0.9962	–	1.321
288.15 K, m1 = 1.331	–	1.45
288.15 K, m1 = 1.669	–	1.519
288.15 K, m1 = 2	–	1.589
288.15 K, m1 = 2.327	–	1.672
288.15 K, m1 = 2.667	–	1.768
288.15 K, m1 = 2.994	–	1.882
288.15 K, m1 = 3.33	–	1.978
288.15 K, m1 = 3.667	–	2.036
293.15 K, m1 = 0.05	1001.64	1.014
293.15 K, m1 = 0.1	1004.86	1.019
293.15 K, m1 = 0.1498	1007.99	1.029
293.15 K, m1 = 0.1997	1011.1	1.04
293.15 K, m1 = 0.2501	1014.14	1.049
293.15 K, m1 = 0.2999	1017.27	1.058
293.15 K, m1 = 0.3312	1019.13	1.07
293.15 K, m1 = 0.3996	1023.27	1.077
293.15 K, m1 = 0.5001	1029.22	1.091
293.15 K, m1 = 0.6672	1039.1	1.144
293.15 K, m1 = 0.9962	1057.95	1.172
293.15 K, m1 = 1.331	1076.44	1.282
293.15 K, m1 = 1.669	1094.43	1.343
293.15 K, m1 = 2	1111.51	1.406
293.15 K, m1 = 2.327	1127.75	1.476
293.15 K, m1 = 2.667	1143.44	1.569
293.15 K, m1 = 2.994	1161.33	1.663
293.15 K, m1 = 3.33	1173.91	1.725
293.15 K, m1 = 3.667	1188.61	1.794
298.15 K, m1 = 0.05	1000.42	0.9019
298.15 K, m1 = 0.1	1003.57	0.9068
298.15 K, m1 = 0.1498	1006.66	0.916
298.15 K, m1 = 0.1997	1009.71	0.9259
298.15 K, m1 = 0.2501	1012.71	0.9338
298.15 K, m1 = 0.2999	1015.79	0.9443
298.15 K, m1 = 0.3312	–	0.9534
298.15 K, m1 = 0.3996	1021.7	0.9597
298.15 K, m1 = 0.5001	1027.57	0.9715
298.15 K, m1 = 0.6672	–	1.024
298.15 K, m1 = 0.9962	–	1.049
298.15 K, m1 = 1.331	–	1.144
298.15 K, m1 = 1.669	–	1.197
298.15 K, m1 = 2	–	1.252
298.15 K, m1 = 2.327	–	1.314
298.15 K, m1 = 2.667	–	1.391
298.15 K, m1 = 2.994	–	1.474
298.15 K, m1 = 3.33	–	1.534
298.15 K, m1 = 3.667	–	1.596
303.15 K, m1 = 0.05	998.96	0.8093
303.15 K, m1 = 0.1	1002.07	0.8127
303.15 K, m1 = 0.1498	1005.1	0.8218
303.15 K, m1 = 0.1997	1008.12	0.8307
303.15 K, m1 = 0.2501	1011.07	0.8376
303.15 K, m1 = 0.2999	1014.11	0.8489
303.15 K, m1 = 0.3312	1015.94	0.8561
303.15 K, m1 = 0.3996	1019.95	0.8615
303.15 K, m1 = 0.5001	1025.74	0.8719
303.15 K, m1 = 0.6672	1035.36	0.9256
303.15 K, m1 = 0.9962	1053.74	0.9448
303.15 K, m1 = 1.331	1071.78	1.026
303.15 K, m1 = 1.669	1089.37	1.073
303.15 K, m1 = 2	1106.08	1.123
303.15 K, m1 = 2.327	1122.01	1.179
303.15 K, m1 = 2.667	1138.64	1.244
303.15 K, m1 = 2.994	1155.01	1.319
303.15 K, m1 = 3.33	1167.41	1.374
303.15 K, m1 = 3.667	1181.92	1.429
308.15 K, m1 = 0.05	997.29	0.7303
308.15 K, m1 = 0.1	1000.35	0.7339
308.15 K, m1 = 0.1498	1003.35	0.7412
308.15 K, m1 = 0.1997	1006.33	0.7497
308.15 K, m1 = 0.2501	1009.25	0.7567
308.15 K, m1 = 0.2999	1012.25	0.7652
308.15 K, m1 = 0.3312	–	0.7753
308.15 K, m1 = 0.3996	1018.02	0.7799
308.15 K, m1 = 0.5001	1023.74	0.7884
308.15 K, m1 = 0.6672	–	0.8371
308.15 K, m1 = 0.9962	–	0.8554
308.15 K, m1 = 1.331	–	0.9337
308.15 K, m1 = 1.669	–	0.9775
308.15 K, m1 = 2	–	1.016
308.15 K, m1 = 2.327	–	1.059
308.15 K, m1 = 2.667	–	1.116
308.15 K, m1 = 2.994	–	1.188
308.15 K, m1 = 3.33	–	1.238
308.15 K, m1 = 3.667	–	1.29
313.15 K, m1 = 0.05	995.42	0.6585
313.15 K, m1 = 0.1	998.45	0.6663
313.15 K, m1 = 0.1498	1001.41	0.6726
313.15 K, m1 = 0.1997	1004.36	0.6808
313.15 K, m1 = 0.2501	1007.25	0.6869
313.15 K, m1 = 0.2999	1010.22	0.698
313.15 K, m1 = 0.3312	–	0.7043
313.15 K, m1 = 0.3996	1015.94	0.7078
313.15 K, m1 = 0.5001	1021.61	0.716
313.15 K, m1 = 0.6672	–	0.7631
313.15 K, m1 = 0.9962	–	0.7748
313.15 K, m1 = 1.331	–	0.8534
313.15 K, m1 = 1.669	–	0.8905
313.15 K, m1 = 2	–	0.9243
313.15 K, m1 = 2.327	–	0.9706
313.15 K, m1 = 2.667	–	1.019
313.15 K, m1 = 2.994	–	1.077
313.15 K, m1 = 3.33	–	1.125
313.15 K, m1 = 3.667	–	1.171
318.15 K, m1 = 0.05	993.38	0.6063
318.15 K, m1 = 0.1	996.37	0.6087
318.15 K, m1 = 0.1498	999.3	0.6141
318.15 K, m1 = 0.1997	1002.21	0.6219
318.15 K, m1 = 0.2501	1005.09	0.6274
318.15 K, m1 = 0.2999	1008.03	0.6362
318.15 K, m1 = 0.3312	–	0.6443
318.15 K, m1 = 0.3996	1013.7	0.6502
318.15 K, m1 = 0.5001	1019.32	0.6543
318.15 K, m1 = 0.6672	–	0.6978
318.15 K, m1 = 0.9962	–	0.7101
318.15 K, m1 = 1.331	–	0.7819
318.15 K, m1 = 1.669	–	0.8167
318.15 K, m1 = 2	–	0.8473
318.15 K, m1 = 2.327	–	0.8914
318.15 K, m1 = 2.667	–	0.9455
318.15 K, m1 = 2.994	–	0.9872
318.15 K, m1 = 3.33	–	1.027
318.15 K, m1 = 3.667	–	1.07
